Laboratory results published in patent US4269940A, “Microbiological alkane oxidation process” (priority 1979, dated 1981).
Like-named read-outs stand apart in the source and are kept apart here.

What was measured:
[1] = test system: secondary alcohol dehydrogenase (SADH); assay: Inhibition of purified secondary alcohol dehydrogenase (SADH); type: biochemical, Pseudomonas sp. ATCC 21439
Procedure: (§1) Secondary alcohol dehydrogenase (SADH) from an obligate methanol utilizer, Pseudomonas sp. ATCC 21439 was purified as follows. […] 0.05 M sodium phosphate buffer, pH 7.0 with 0.5mM dithiothretol (buffer A) and were disrupted sonically (5×1 min.). The crude extract was separated by centrifugation. The crude extract was heat-treated at 50° C. in a water bath for 10 minutes. The resulting precipitate was removed by centrifugation. To the supernatant solution, 25 ml of protamine sulfate solution (2% solution in 0.1 M Tris base) was added dropwise with continuous stirring. After standing for 30 minutes, the extract was centrifuged. The supernatant solution was fractionated with solid ammonium sulfate. […] This DEAE-cellulose eluate was concentrated by ammonium sulfate fractionation. Material precipitating between 30 and 50% ammonium sulfate saturation was collected by centrifugation and dialyzed overnight against A. This fraction was further washed and filtered through an Amicon unit with XM 50 membrane. The concentrated fraction (6 ml) inside the Amicon unit was applied to an Affi-Gel Blue column (0.8 cm ×18 cm) which had been equilibrated with buffer A for affinity chromatography. The column was washed overnight with buffer A (0.18 ml./min.) and then was eluted with buffer A containing 5 mM NAD. Each 1 ml. fraction was collected.
(§2) The purified secondary alcohol dehydrogenase enzyme (SADH) may be used directly for converting C3 -C6 secondary alcohols to the corresponding methyl ketones by the procedures described above; however, a source of NAD^+ must be added to the reaction medium. One can determine the NAD-linked secondary alcohol dehydrogenase activity with a fluorescence spectrophotometer (Perkin Elmer, Model MPF 44A) by following the formation of reduced NAD (Ex 340 nm, Em 460 nm). The assay system (3 ml.) will typically contain: sodium phosphate buffer pH 7.0, 150 μmol; NAD 1.0 μmol; a given amount of enzyme preparation; and 20 μmol secondary alcohol. The reaction is started by the addition of secondary alcohol. One unit of SADH enzyme activity represents the reduction of one nmole NAD per minute.
The effect of metal-chelating agents and thioreagents on the activity of the purified SADH enzyme were studied. […] The possibility of ethanol or n-propanol as an inhibitor was studied.

[2] = test system: purified secondary alcohol dehydrogenase; assay: Substrate and electron acceptor specificity of purified yeast secondary alcohol dehydrogenase; type: biochemical, Pichia sp. NRRL Y-11,328; details: for Oxidation by the purified yeast enzyme (in words): examined spectrophotometrically
Procedure: (§3) Large scale cultures of Pichia sp. NRRL Y-11,328 were grown with aeration at 30° C. in a 14-liter New Brunswick f fermentor in a mineral salt medium containing methanol (0.4%, v/v) as the sole carbon source. The cells (200 g., wet weight) were suspended in 50 mm sodium phosphate buffer, pH 7.0, containing 1 mM dithiothreitol (buffer A), and crude extracts were prepared as described previously. To the crude extracts, 18 ml. of protamine sulfate solution [2% solution in 0.1 M tris (hydroxymethyl) aminomethane (tris) base] was added dropwise with continuous stirring. After standing for 30 min., the extracts were centrifuged at 20,000 x g. for 60 min. The supernatant solution was fractioned with solid ammonium sulfate. Extracts were brought to 50% of saturation with respect to ammonium sulfate by addition of 313 g. of the salt per liter of extract. Precipitated proteins was removed by centrifugation, and 137 g. of ammonium sulfate was added per liter of the supernatant liquid to bring it to 70% of saturation. Material precipitating between 50 and 70% of saturation was collected by centrifugation and dissolved in buffer A. This preparation was dialyzed overnight against buffer A, and the dialyzed material was applied to a DEAE-cellulose column (5×40 cm) that had been equilibrated with buffer A. The sample was washed with 200 ml. of buffer A and eluted with 2 liters of buffer A that contained NaCl in a linear gradient running from a concentration of 0 to 0.5 M. Fractions of 15 ml. were collected. Fractions containing secondary alcohol dehydrogenase activity were pooled and were termed DEAE-cellulose eluate. The DEAE-cellulose eluate was concentrated by ammonium sulfate fractionation.
(§4) Secondary alcohol dehydrogenase activity was measured spectrophotometrically at 340 nm with a NAD^+ as an electron acceptor. The reaction mixture, in a total 3.0 ml., contained 50 mM phosphate buffer, pH 8.0, 5μmoles NAD^+, crude extracts, and substrate. The reactions were started by addition of 100 μof 0.1 M substrate and the rate of NAD^+ reduction was measured. Protein concentration was determined by the method of Lowry et al.
The substrate specificity of the purified secondary alcohol dehydrogenase was examined spectrophotometrically.

[3] = test system: secondary alcohol dehydrogenase (SADH); assay: Substrate specificity and Michaelis constants of purified SADH; type: biochemical, Pseudomonas sp. ATCC 21439
Procedure: as §1, §2

[4] = test system: P(40) fraction of Methylosinus sp. (CRL-15, NRRL B-11,202); assay: Effect of inhibitors on propylene epoxidation and methane hydroxylation by P(40) fraction (Table XI); type: biochemical; details: inhibitor 10^-3 M
Procedure: The oxidation of methane and propylene by particulate [(P)40 and (P)80] fractions and soluble [S(80)] fraction was measured at 30° C. by estimating the production of methanol and propylene oxide, respectively. The reaction mixtures contained in 1.0 ml: 150 mM potassium phosphate buffer, pH 7.0 containing 5 mM MgC2, 0.6 ml; 10 μmoles NADH, and cellular fraction.
Reaction mixtures were contained in 10 ml vials at 4° C. Vials were sealed with rubber caps. The gaseous phase in the vials was removed using vacuum and then was replaced with a gas mixture of methane or propylene and oxygen at a 1:1, v/v ratio. Oxidation of other gaseous n-alkanes and n-alkenes was examined as described above. For liquid substrates, 10 μ of substrate was used directly. Vials were then incubated at 30° C. on a rotary shaker at 200 RPM.
The products of epoxidation of n-alkenes and hydroxylation of n-alkanes were assayed by flame ionization gas chromatography using a stainless steel column (12'×1/8") packed with 10% Carbowax 20M on 80/100 Chromosorb W and Porapak Q column. The column temperature was maintained isothermally at 120° C. The carrier gas flow rate was 30 ml/min. of helium. The various products were identified by retention time comparisons and co-chromatography with authentic standards.
It has been reported that the oxidation of methane by cell suspensions of methane-utilizing bacteria was inhibited by various metal-binding or metal-chelating agents (Patel et al., J. Bacteriol. 126: 1017-1019 (1976)). […] (CRL-15, NRRL B-11,202) was examined.

[5] = test system: cell-free particulate fractions derived from the methylotrophic microorganisms; assay: Inhibition of conversion of C3-C6 n-alkanes to sec. alcohols by cell-free particulate fractions; type: biochemical; details: oxygen and NADH
Text: The conditions for preparing the cell suspensions or the cell-free particulate fractions from methane-grown methylotroph microorganisms is the same as described above.

[6] = test system: cell suspensions of the strains of C1-utilizers tested; assay: Production of methyl ketones from secondary alcohols by cell suspensions of C1-utilizers (strains tested); type: cell-based; details: for Rate of oxidation of secondary alcohols to methyl ketones: cell suspensions of C1-utilizers; for Inhibition of production of 2-butanone from 2-butanol: cell suspensions of the strains tested
Text: The substrate specificity for the oxidation of C3 -C6 secondary alcohols by the strains of C1 -utilizers was studied.

[7] = test system: purified secondary alcohol dehydrogenase; assay: Inhibition of purified yeast secondary alcohol dehydrogenase; type: biochemical, Pichia sp. NRRL Y-11,328; details: purified yeast enzyme
Procedure: as §3, §4
Various primary alcohols not oxidized by secondary alcohol dehydrogenase were tested as potential inhibitors of enzyme activity.

[8] = inhibitor 1 mM, measured spectrofluorometrically

[Fe+3] [ferric]
% inhibition of SADH activity [1, 8]: 35%

CCC(O)CO (stereo not drawn) [butane 1,2-diol]
Oxidation by the purified yeast enzyme (in words) [2]: not oxidized | Oxidation by purified SADH (in words) [3]: not oxidized

CCC=O [propanal]
Oxidation by purified SADH (in words) [3]: oxidized at a lower rate

CC(O)CCO (stereo not drawn) [butane 1,3-diol]
Oxidation by the purified yeast enzyme (in words) [2]: not oxidized | Oxidation by purified SADH (in words) [3]: oxidized at a lower rate

[Ni+2] [nickel]
% inhibition of SADH activity [1, 8]: 20%

CCCCO [butan-1-ol]
Oxidation by the purified yeast enzyme (in words) [2]: not oxidized

CC=O [acetaldehyde]
Oxidation by purified SADH (in words) [3]: oxidized at a lower rate

cytochrome c: cytochrome c tested as electron carrier [reference compound]
Function as electron acceptor/carrier for the purified yeast enzyme ([2]; purified enzyme): could not act as electron carrier

NNC(N)=S [Thiosemicarbazide]
% inhibition of methane-hydroxylating activity [4]: 100% | % inhibition of propylene-epoxidizing activity [4]: 97% | Inhibition of conversion of C3-C6 n-alkanes to sec. alcohols (in words) [5]: inhibited

CC(O)C(C)O (stereo not drawn) [butane 2,3-diol]
Oxidation by purified SADH (in words) [3]: oxidized at a lower rate

[N-]=[N+]=[N-] [Sodium azide]
% inhibition of SADH activity [1, 8]: 10%

C=O [formaldehyde]
Oxidation by purified SADH (in words) [3]: not oxidized

Oc1cccc2cccnc12 [8-Hydroxyquinoline]
% inhibition of methane-hydroxylating activity [4]: 80% | % inhibition of propylene-epoxidizing activity [4]: 75% | Inhibition of conversion of C3-C6 n-alkanes to sec. alcohols (in words) [5]: inhibited

CCCCCC(C)O (stereo not drawn) [2-heptanol]
Rate of oxidation of secondary alcohols to methyl ketones [6]: much slower rate | Oxidation by the purified yeast enzyme (in words) [2]: not oxidized

[Zn+2] [Zn^++]
% inhibition of SADH activity [1, 8]: 0%

O=C(O)CCC(=O)O [succinic acid]
Oxidation by purified SADH (in words) [3]: not oxidized

O=C(O)c1cc(SSc2ccc([N+](=O)[O-])c(C(=O)O)c2)ccc1[N+](=O)[O-] [5,5'-dithiobis(2-nitrobenzoic acid)]
% inhibition of SADH activity [1, 8]: 100%

O=Cc1ccccc1 [benzaldehyde]
Oxidation by purified SADH (in words) [3]: not oxidized

NC(N)=S [Thiourea]
% inhibition of methane-hydroxylating activity [4]: 98% | % inhibition of propylene-epoxidizing activity [4]: 98% | Inhibition of conversion of C3-C6 n-alkanes to sec. alcohols (in words) [5]: inhibited | Inhibition of production of 2-butanone from 2-butanol [6]: not inhibited | % inhibition of SADH activity [1, 8]: 0%

[Fe+2] [ferrous]
% inhibition of SADH activity [1, 8]: 50%

[Mn+2] [Mn^++]
% inhibition of SADH activity [1, 8]: 0%

CCO [ethanol]
Oxidation by the purified yeast enzyme (in words) [2]: not oxidized

[Co+2] [Co^++]
% inhibition of SADH activity [1, 8]: 0%

N#C[S][Hg][S]C#N [mercuric thiocyanate]
Inhibition of secondary alcohol dehydrogenase activity (in words) [7]: inhibited

CO [methanol]
Oxidation by the purified yeast enzyme (in words) [2]: not oxidized

[Mg+2] [Mg^++]
% inhibition of SADH activity [1, 8]: 0%

O=C(O)c1cc[c]([Hg+])cc1.[OH-] [p-hydroxymercuribenzoate]
Inhibition of secondary alcohol dehydrogenase activity (in words) [7]: strongly inhibited | % inhibition of SADH activity [1, 8]: 100%

[Cu+2] [cupric]
% inhibition of SADH activity [1, 8]: 25%

c1c[nH]cn1 [Imidazole]
Inhibition of secondary alcohol dehydrogenase activity (in words) [7]: strongly inhibited

O=C(O)CI [iodoacetic acid]
% inhibition of SADH activity [1]: 0%

O=S(=O)([O-])[O-].[Cu+2] [Cupric Sulfate]
Inhibition of secondary alcohol dehydrogenase activity (in words) [7]: inhibited

CCCCCO [pentan-1-ol]
Oxidation by the purified yeast enzyme (in words) [2]: not oxidized

CCCC(C)O (stereo not drawn) [2-pentanol]
Rate of oxidation of secondary alcohols to methyl ketones [6]: much slower rate | Oxidation by the purified yeast enzyme (in words) [2]: catalyzed the oxidation | Oxidation by purified SADH (in words) [3]: oxidized at a lower rate

Oc1ccccc1 [phenol]
Oxidation by purified SADH (in words) [3]: not oxidized

CCCO [n-propanol]
Oxidation by the purified yeast enzyme (in words) [2]: not oxidized

CCCCC(C)O (stereo not drawn) [2-hexanol]
Rate of oxidation of secondary alcohols to methyl ketones [6]: much slower rate | Oxidation by the purified yeast enzyme (in words) [2]: catalyzed the oxidation | Oxidation by purified SADH (in words) [3]: oxidized at a lower rate

CC(C)CO [isobutanol]
Oxidation by purified SADH (in words) [3]: not oxidized

c1cnc2c(c1)ccc1cccnc12 [1,10-phenanthroline]
Inhibition of secondary alcohol dehydrogenase activity (in words) [7]: strongly inhibited | % inhibition of methane-hydroxylating activity [4]: 90% | % inhibition of propylene-epoxidizing activity [4]: 93% | Inhibition of conversion of C3-C6 n-alkanes to sec. alcohols (in words) [5]: inhibited | Inhibition of production of 2-butanone from 2-butanol [6]: inhibited | % inhibition of SADH activity [1, 8]: 95%

CC(O)CO (stereo not drawn) [1,2-propandiol]
Oxidation by the purified yeast enzyme (in words) [2]: not oxidized

c1ccc(-c2ccccn2)nc1 [α,α-bipyridyl]
% inhibition of methane-hydroxylating activity [4]: 99% | % inhibition of propylene-epoxidizing activity [4]: 98% | Inhibition of conversion of C3-C6 n-alkanes to sec. alcohols (in words) [5]: inhibited | Inhibition of production of 2-butanone from 2-butanol [6]: inhibited | % inhibition of SADH activity [1, 8]: 70%

CCN1C(=O)C=CC1=O [N-ethylmalemide]
% inhibition of SADH activity [1, 8]: 6%

O=[N+]([O-])[O-].[Ag+] [silver nitrate]
Inhibition of secondary alcohol dehydrogenase activity (in words) [7]: inhibited

CCCCCCC(C)O (stereo not drawn) [2-octanol]
Oxidation by the purified yeast enzyme (in words) [2]: not oxidized

OC1CCCCC1 [cyclohexanol]
Oxidation by purified SADH (in words) [3]: oxidized at a lower rate
